Source: patent US20200368211A1, “INHIBITION OF GAMMA-GLUTAMYLTRANSFERASE AND GLUTATHIONE CATABOLISM TO ENHANCE THE EFFICACY OF NF-KB SIGNALLING PATHWAY INHIBITORS” (UNIVERSITAET HEIDELBERG, priority 2017, published 2020)
“Also recorded” adds a separate entry of the source.

Columns and labels:
[1] = tested on: MEC1 cells; experiment: MTT cell proliferation assay, MEC1 cells; type: cell-based, human; conditions: for Effect of auranofin and BSO low-dose combination on activity of NF-κB inhibitors, MEC1: auranofin 0.25-0.5 μM plus BSO 1.25-10 μM with BAY 11-7082 or EF24
Experimental: (§1) For metabolic activity assays, here MTT-assays, cell density was 3×10^4 cells per well (96 well plate). For ROS/superoxide detection assays cell density was 1×10^5 per tube (volume 1 ml). For NF-κB family member activation assays nuclear cell extracts were used (9×10^6 cells/6 ml volume in 6 well plates). The MTT or XTT assay is the most reliable for assessment of cell growth. In principal all assays are based on staining of viable cells after treatment. Cytotoxic effects in cell lines may also be assessed by [^3H] thymidine incorporation (see below). Cell proliferation was assessed by the MTT assay. […] The plates were incubated for 72 h under standard conditions. After addition of 15 μl of a 5 mg/ml MTT solution (MTT; Sigma, Germany) to each well and incubation for another 4 h, 100 μl/well of a 10% sodium dodecyl sulphate solution in 0.01 M hydrochloric acid were added and the plates were incubated overnight under the same conditions (stain development). Subsequently, the absorbance of each well at 540 nm (reference wavelength 690 nm) was recorded with an absorbance plate reader (Sunrise, Tecan, Switzerland). Blank control values (no drug, no cells) were subtracted from the sample values and the means of replicate wells for each drug dilution and the control (cells grown in absence of the drug) were used to calculate the extent of relative cell proliferation (as percentage of the control) and growth inhibition.

[2] = tested on: MOLM13 cells; experiment: MTT cell proliferation assay, MOLM13 cells; type: cell-based, human; conditions: for Effect of auranofin and BSO low-dose combination on activity of NF-κB inhibitors, MOLM13: auranofin 0.25-0.5 μM plus BSO 1.25-10 μM with BAY 11-7082 or EF24
Experimental: as §1, with “For NF-κB family member activation assays nuclear cell extracts were used (9×10^6 cells/6 ml volume in 6 well plates).” left out

[3] = tested on: MOLM13 cells; experiment: Intracellular ROS/superoxide detection by flow cytometry, MOLM13 cells; type: cell-based, human
Experimental: (§2) Intracellular ROS/superoxide levels were assessed by the ROS/superoxide Detection Assay Kit (ab139476, Abcam, Cambridge, UK) according to the manufacturer's protocol.
(§3) Cells were incubated with OU749 for 10 minutes prior to addition of serum or albumin (FCS or HS, both 10%, BSA or different HSA preparations as indicated), or albumin-supplemented FCS (supplementation with HSA or BSA: final albumin concentration 4-5 mg/ml). The final cell concentration was 1×10^5/ml/tube (volume 1 ml). Mean fluorescence intensities of at least 10000 events were assessed and compared.
(§4) ROS and superoxide levels were assessed by flow cytometry using the cellular ROS/superoxide Detection Assay Kit (ab139476, Abcam, Cambridge, UK) according to the manufacturer's protocol. […] Mean fluorescence intensities of at least 10000 events were assessed and compared.

[4] = tested on: MEC1 cells; experiment: Intracellular ROS/superoxide detection by flow cytometry, MEC1 cells; type: cell-based, human
Experimental: as §2, §3, §4

[5] = tested on: NF-κB family of transcription factors (p65, p50, c-Rel, p52 and RelB); experiment: NF-κB family member activation (TransAM, nuclear extracts), MEC1 cells; type: cell-based, human; conditions: 200 μM OU749, 10% HS, 4 h
Experimental: (§5) After 4 h incubation with defined concentrations of inhibitors of the NF-κB signalling pathway with or without co-incubation with OU749, nuclear extracts were prepared using the AM nuclear extract kit (Active Motif, La Hulpe, Belgium) according to the manufacturer's protocol. Protein concentration of the respective extracts was measured according to the Bradford method and 10 μg of total protein per preparation was used for assessment of the NF-κB family member activation.
(§6) For the assessment of NF-κB family member activation (p65, p50, c-Rel, p52 and RelB) the TransAM® NF-κB Family Transcription Factor Assay kit was applied (Active Motif, La Hulpe, Belgium) according to the manufacturer's instructions. Results were expressed as relative activation levels (relative to the activation of DMSO controls either in the presence of 10% FCS or 10% HS) and compared between different experimental settings.

[6] = tested on: HL60 cells; experiment: MTT cell proliferation assay, HL60 cells; type: cell-based, human; conditions: 200 μM OU749, 10% HS
Experimental: For assessment of cytostatic and/or cytotoxic effects HL60 cells were washed in serum-free RPMI-1640 medium supplemented with 2 mM L-glutamine and 1% penicillin/streptomycin and diluted to 1.25×10^5/ml (logarithmic cell growth). Cells were incubated with OU749 for 10 minutes prior to addition of serum (FCS or HS, both 10%) to washed cells resulting in a density of 1.11×10^5/ml. For MTT-assays cell density was 1×10^4 cells per well (96 well plate).
The MTT or XTT assay is the most reliable for assessment of cell growth. In principal all assays are based on staining of viable cells after treatment. Cytotoxic effects in cell lines may also be assessed by [^3H] thymidine incorporation (see below). Cell proliferation was assessed by the MTT assay. After washing in serum-free medium, pre-incubation with inhibitors of the glutathione catabolism, and addition of defined serum or albumin or serum+albumin concentrations, 90-μl aliquots of the cell suspension (density see above) were dispensed into 96-well flat-bottomed microtitre plates containing 10 μl/well of serial drug dilutions. The plates were incubated for 72 h under standard conditions. After addition of 15 μl of a 5 mg/ml MTT solution (MTT; Sigma, Germany) to each well and incubation for another 4 h, 100 μl/well of a 10% sodium dodecyl sulphate solution in 0.01 M hydrochloric acid were added and the plates were incubated overnight under the same conditions (stain development). Subsequently, the absorbance of each well at 540 nm (reference wavelength 690 nm) was recorded with an absorbance plate reader (Sunrise, Tecan, Switzerland). Blank control values (no drug, no cells) were subtracted from the sample values and the means of replicate wells for each drug dilution and the control (cells grown in absence of the drug) were used to calculate the extent of relative cell proliferation (as percentage of the control) and growth inhibition. Since inhibitors were initially dissolved in DMSO, serial drug dilutions and controls were prepared to finally achieve 0.2% DMSO in all wells (total volume 100 μl); no anti-proliferative effects could be observed at this DMSO concentration in the investigated cell lines.
After washing in serum-free medium cells were diluted to desired density (3.70×10^5/ml for MEC1 and MOLM13, 1.25×10^5/ml for HL60) and HS and FCS was added both in a final concentration of 10%. Then 90-μl aliquots of the cell suspension (densities after addition of serum: 3.33×10^5/ml for MEC1 and MOLM13, 1.1×10^5/ml for HL60) were dispensed into 96-well flat-bottomed microtitre plates containing 10 μl/well of serial drug dilutions of NF-κB inhibitors. The cell concentrations in the 96 well plate were: 3×10^4/well for MEC1 and MOLM13, 1×10^4/well for HL60.
Then 90-μl aliquots of the cell suspension (densities after addition of serum: 3.33×10^5/ml for MEC1 and MOLM13, 1.1×10^5/ml for HL60) were dispensed into 96-well flat-bottomed microtitre plates containing 10 μl/well of serial drug dilutions of NF-κB inhibitors. The cell concentrations in the 96 well plates were: 3×10^4/well for MEC1 and MOLM13, 1×10^4/well for HL60.

[7] = tested on: NF-κB family of transcription factors (p65, p50, c-Rel, p52 and RelB); experiment: NF-κB family member activation (TransAM, nuclear extracts), MOLM13 cells; type: cell-based, human; conditions: 200 μM OU749, 10% HS, 4 h
Experimental: as §5, §6

[8] = human plasma, stated as achievable; cited from earlier work
[9] = OU749 100 μM for 10% FCS, 200 μM for 10% HS or BSA/HSA 20 mg/ml, versus DMSO
[10] = with BAY 11-7082, 10% FCS (to a lesser extent 10% HS), versus H2O

Compound: CCCCS(=N)(=O)CCC(N)C(=O)O (centres unmarked) [BSO, buthionine sulfoximine]
- Effect of auranofin and BSO low-dose combination on activity of NF-κB inhibitors, MEC1 ([1]; 10% HS): enhance/restore the activity of NF-κB inhibitors
- Effect of auranofin and BSO low-dose combination on activity of NF-κB inhibitors, MOLM13 ([2]; 10% HS): enhance/restore the activity of NF-κB inhibitors

Compound: COc1ccc(Cc2nnc(NS(=O)(=O)c3ccccc3)s2)cc1 [OU749, N-[5-(4-methoxybenzyl)-1,3,4-thiadiazol-2-yl]benzenesulfonamide]
- Toxic effects of OU749 in HS-supplemented systems, MEC1 ([1]; 200 μM OU749, 10% HS): no toxic effects
- OU749 concentration above which anti-proliferative effects are apparent, MEC1, 10% FCS ([1]; 10% FCS, 72 h, single agent): above 50 μM
- OU749 concentration at which anti-proliferative effects appear, MEC1, 10% HS ([1]; 10% HS, 72 h, single agent): ≥ 200 µM
- ROS levels, OU749 versus DMSO, MOLM13 in HS medium ([3]; 200 μM OU749, 10% HS): enhanced ROS levels
- Intracellular ROS levels, OU749 in presence of serum and albumin, MOLM13 [3, 9]: increases intracellular ROS levels
- ROS levels, OU749 versus DMSO, MEC1 in HS medium ([4]; 200 μM OU749, 10% HS): enhanced ROS levels
- Intracellular ROS levels, OU749 in presence of serum and albumin, MEC1 [4, 9]: increases intracellular ROS levels
- Nuclear levels of NF-κB transcription factors, OU749 alone in HS, MEC1 [5]: increased nuclear levels of different members of the NF-κB family of transcription factors
- Toxic effects of OU749 in HS-supplemented systems, MOLM13 ([2]; 200 μM OU749, 10% HS): no toxic effects
- OU749 concentration above which anti-proliferative effects are apparent, MOLM13, 10% FCS ([2]; 10% FCS, 72 h, single agent): above 50 μM
- OU749 concentration at which anti-proliferative effects appear, MOLM13, 10% HS ([2]; 10% HS, 72 h, single agent): ≥ 200 µM
- Toxic effects of OU749 in HS-supplemented systems, HL60 [6]: no toxic effects
- Nuclear levels of NF-κB transcription factors, OU749 alone in HS, MOLM13 [7]: increased nuclear levels of different members of the NF-κB family of transcription factors

Compound: CC(=O)OC[C@H]1O[C@@H]([S-])[C@H](OC(C)=O)[C@@H](OC(C)=O)[C@@H]1OC(C)=O.CCP(CC)CC.[Au+] [auranofin]
- Effect of auranofin and BSO low-dose combination on activity of NF-κB inhibitors, MEC1 ([1]; 10% HS): enhance/restore the activity of NF-κB inhibitors
- Effect of auranofin and BSO low-dose combination on activity of NF-κB inhibitors, MOLM13 ([2]; 10% HS): enhance/restore the activity of NF-κB inhibitors

Compound: N[C@@H](CS)C(=O)NCC(=O)O [cysteinyl-glycin]
- Effect of cysteinyl-glycin on activity of NF-κB inhibitors, MEC1 [1, 10]: decrease the activity of NF-κB inhibitors
- Effect of cysteinyl-glycin on activity of NF-κB inhibitors, MOLM13 [2, 10]: decrease the activity of NF-κB inhibitors

Compound: C/C(O)=C(\C#N)C(=O)Nc1ccc(C(F)(F)F)cc1 [A77 726]
- Achievable plasma concentrations of the active metabolite of leflunomide [8]: about 176 μg/ml; also recorded: about 635 μM
